The record followed here is patent US20050255595A1, “Genetically modified non-human mammal cells, procedure for their production and use in toxicity tests” (priority 2002, published 2005).

Series [1] relates to primary hepatocytes (PHGH). Put plainly: cellular survival of PHGH, Trypan Blue exclusion. In kind it is cell-based, mice. More on the design: % cellular survival, PHGH 1 + 24 h / % cellular survival, PHGH 5 + 24 / % vitality of the cells, PHGH 1 + 24 h / % vitality of the cells, PHGH 5 + 24 h: unit of the concentration uncertain. Particulars: for % cellular survival, PHGH 1 + 24 h: 1 h treatment + 24 h normal medium; for % cellular survival, PHGH 5 + 24: 5 h treatment + 24 h normal medium. From the text:
(§1) This different behaviour is explained by the greater sensitivity to the toxicant of the PHGH with respect to the MMH/GH5 as shown by analysis of the cellular vitality performed with the Trypan Blue method (FIG. 1, graph B). […] Therefore the greater resistance of the cells MMH/GH/5 to the toxicants constitutes another evident advantage as it permits the exclusion of false negatives in which the non-release of hGH, due to cellular death, is interpreted as non-toxicity of the compound. When the supernatant is collected after 5 hours of treatment followed by 24 hours of culture with normal medium (FIG. 1 graph C) the PHGHs respond, at the lowest concentrations of the two toxicants, with high levels of secretion of hGH and, at the highest concentrations, with low levels of secretion of hGH (lower cellular survival, graph D).
(§2) In table 3 the cellular survival percentage was determined with the Trypan Blue exclusion method. […]
(§3) For treatment, the two types of cells were treated with different concentrations of the compounds for 1 or 5 hours and then with normal medium for a further 24 hours. The effects of the treatment were assessed as described previously for the inorganic toxicants.

The subject of a further series is MMH/GH cells, Clone 11. Particulars: for hGH secreted, 5 h: 5 h treatment.
The subject of series [2] is single transgenic HPS70/hGH primary hepatocytes (PHGH). The series is described as follows: toxicity test, hGH secretion by primary transgenic hepatocytes (PHGH). More on the design: hGH secreted, PHGH 1 h / hGH secreted, PHGH 5 h / hGH secreted, PHGH 1 + 24 h / hGH secreted, PHGH 5 + 24: unit of the concentration uncertain. The format is cell-based, mice.
Excerpt: On the basis of the results illustrated, for the further analyses, clone no. […] The response to the toxic stress of the clone MMH/GH5 was then compared with the one obtained in single transgenic HPS70/hGH primary hepatocytes (PHGH). A representative sample of the cell line derived from said clone MMH/GH5 was deposited in accordance with and for the purposes of the Treaty of Budapest on the international recognition of deposit of micro-organisms for the purposes of the patents procedure with the AID “Centro di Biotecnologie Avanzate (CBA), Interlab Cell Line Collection (ICLC)” Servizio Biotecnologie, Largo R. Benzi, 10, 16132 Genova, Italy, on Jul. 30, 2002, where it was given identification number PD 02007.
as §2, §3

For the next series, the system named is MMH/GH cells, Clone 10. Particulars: for hGH secreted, 5 h: 5 h treatment; for hGH secreted, 5 + 24 h: 5 h treatment + 24 h recovery.
Another series deals with MMH/GH5 cells (Clone 5). More on the design: hGH secreted, MMHGH/5 1 + 24 h / hGH secreted, MMHGH/5 5 + 24 / hGH secreted, MMHGH/5 1 h / hGH secreted, MMHGH/5 5 h: dose or concentration left out as unconfirmed. The note with it: for hGH secreted, 5 h / hGH secreted, 5 + 24 h: Clone 5; for hGH secreted, 5 + 24 h: 5 h treatment + 24 h recovery.
A further series deals with MMH/GH cells, Clone 2. Particulars: for hGH secreted, 5 h: 5 h treatment; for hGH secreted, 5 + 24 h: 5 h treatment + 24 h recovery.
The subject of a further series is MMH/GH cells, Clone 9. Particulars: for hGH secreted, 5 h: 5 h treatment; for hGH secreted, 5 + 24 h: 5 h treatment + 24 h recovery.
For a further series, the system named is MMH/GH5 cells. The series is described as follows: cellular survival of MMH/GH5, Trypan Blue exclusion. In kind it is cell-based, mice. More on the design: % cellular survival, MMHGH/5 1 + 24 h / % cellular survival, MMHGH/5 5 + 24 / % vitality of the cells, MMH/GH 1 + 24 h / % vitality of the cells, MMH/GH 5 + 24 h: unit of the concentration uncertain. Particulars: for % cellular survival, MMHGH/5 1 + 24 h: 1 h treatment + 24 h normal medium; for % cellular survival, MMHGH/5 5 + 24: 5 h treatment + 24 h normal medium.
Excerpt: as §1, §2, §3

[3] abbreviates: 25 (unit uncertain), Trypan Blue.
Where [4] appears, read: 50 (unit uncertain), Trypan Blue (Table 3).

Read-outs that look alike come from different tables or passages of the source.

As to `[Cl][Cd][Cl]` [CdCl2], the “survival of the PHGHs” value in series [1] (highest concentrations of the toxicant, Trypan Blue, FIG. 1 graph B) is on record as “practically nil”. Further, the “hGH secreted, 5 h” value in the series with MMH/GH cells, Clone 11 (Clone 11, 5x10^-5 M (As2/Cd2)) is recorded as 0; in the series with MMH/GH cells, Clone 11 (Clone 11, 10^-4 M (As3/Cd3)), 0; in the series with MMH/GH cells, Clone 11 (Clone 11, 10^-5 M (As1/Cd1)), 40; with MMH/GH cells, Clone 10 (5x10^-5 M (As2/Cd2)) it was 0; in the series on MMH/GH cells, Clone 10 (10^-4 M (As3/Cd3)), 0; in the series with MMH/GH cells, Clone 10 (10^-5 M (As1/Cd1)), 0. In addition, the “hGH secreted, 5 h” value came to 50 in the series with MMH/GH5 cells (Clone 5) (5x10^-5 M (As2/Cd2), 5 h treatment); 90 in the series on MMH/GH5 cells (Clone 5) (10^-4 M (As3/Cd3), 5 h treatment); 25 in the series with MMH/GH5 cells (Clone 5) (10^-5 M (As1/Cd1), 5 h treatment); 0 with MMH/GH cells, Clone 2 (5x10^-5 M (As2/Cd2)); 0 in the series with MMH/GH cells, Clone 2 (10^-4 M (As3/Cd3)); 0 in the series on MMH/GH cells, Clone 2 (10^-5 M (As1/Cd1)). In addition, the “hGH secreted, 5 h” value amounted to 0 in the series with MMH/GH cells, Clone 4 (Clone 4, 5x10^-5 M (As2/Cd2), 5 h treatment); 0 in the series on MMH/GH cells, Clone 4 (Clone 4, 10^-4 M (As3/Cd3), 5 h treatment); 0 in the series with MMH/GH cells, Clone 4 (Clone 4, 10^-5 M (As1/Cd1), 5 h treatment); 200 with MMH/GH cells, Clone 9 (5x10^-5 M (As2/Cd2)); 5 in the series on MMH/GH cells, Clone 9 (10^-4 M (As3/Cd3)); 0 in the series with MMH/GH cells, Clone 9 (10^-5 M (As1/Cd1)). For the same molecule, the “hGH secreted, 5 + 24 h” value is 0 with MMH/GH cells, Clone 11 (Clone 11, 5x10^-5 M (As2/Cd2), 5 h treatment + 24 h recovery); 0 in the series on MMH/GH cells, Clone 11 (Clone 11, 10^-4 M (As3/Cd3), 5 h treatment + 24 h recovery); 0 in the series on MMH/GH cells, Clone 11 (Clone 11, 10^-5 M (As1/Cd1), 5 h treatment + 24 h recovery); 12 with MMH/GH cells, Clone 10 (5x10^-5 M (As2/Cd2)); 7 in the series on MMH/GH cells, Clone 10 (10^-4 M (As3/Cd3)); 25 in the series with MMH/GH cells, Clone 10 (10^-5 M (As1/Cd1)). Further, the “hGH secreted, 5 + 24 h” value with MMH/GH5 cells (Clone 5) (5x10^-5 M (As2/Cd2)) is on record as 40; in the series with MMH/GH5 cells (Clone 5) (10^-4 M (As3/Cd3)) it was 20; in the series with MMH/GH5 cells (Clone 5) (10^-5 M (As1/Cd1)), 25; with MMH/GH cells, Clone 2 (5x10^-5 M (As2/Cd2)) it was 4; with MMH/GH cells, Clone 2 (10^-4 M (As3/Cd3)), 0; with MMH/GH cells, Clone 2 (10^-5 M (As1/Cd1)), 0. In addition, the “hGH secreted, 5 + 24 h” value with MMH/GH cells, Clone 4 (Clone 4, 5x10^-5 M (As2/Cd2), 5 h treatment + 24 h recovery) came out at 0; in the series on MMH/GH cells, Clone 4 (Clone 4, 10^-4 M (As3/Cd3), 5 h treatment + 24 h recovery), 0; in the series with MMH/GH cells, Clone 4 (Clone 4, 10^-5 M (As1/Cd1), 5 h treatment + 24 h recovery), 0; in the series with MMH/GH cells, Clone 9 (5x10^-5 M (As2/Cd2)), 0; with MMH/GH cells, Clone 9 (10^-4 M (As3/Cd3)), 0; in the series on MMH/GH cells, Clone 9 (10^-5 M (As1/Cd1)) it was 0. In addition, the “release of hGH in the culture medium in relation to concentration of the toxicant” value in series [2] (PHGH, 10^-5, 5x10^-5, 10^-4 M, 5 h, FIG. 1 graph A) is on record as “inversely proportional”; in the series on MMH/GH5 cells (Clone 5) (MMH/GH5, 10^-5, 5x10^-5, 10^-4 M, 5 h, FIG. 1 graph A) it was “directly proportional to the concentration of the toxicant”.
On to `O=[As][O-].[Na+]` [NaAsO2], for which, in the series on MMH/GH cells, Clone 11, the “hGH secreted, 5 + 24 h” value amounted to 0. In the series with MMH/GH cells, Clone 4, the “hGH secreted, 5 + 24 h” value came to 0 and the “hGH secreted, 5 h” value was found to be 0.
In the case of `CCCCC[C@H](O)/C=C/[C@H]1C=CC(=O)[C@@H]1CCCCCCC(=O)O` [PGA1], the “% cellular survival, PHGH 1 + 24 h” value in [1] (setting [3]) stood at 95%; in [1] (setting [4]) it was 90%. Further, the “% cellular survival, PHGH 5 + 24” value came to 90% in series [1] (setting [3]) and 70% in [1] (setting [4]). Besides, the “% cellular survival, MMHGH/5 1 + 24 h” value in the series with MMH/GH5 cells (setting [3]) and with MMH/GH5 cells (setting [4]) was 90% throughout. For the same molecule, the “% cellular survival, MMHGH/5 5 + 24” value in the series on MMH/GH5 cells (setting [3]) and with MMH/GH5 cells (setting [4]) was 90% in each case. Moreover, the “hGH secreted, PHGH 1 h” value in [2] (25 (unit uncertain), 1 h treatment) is given as 9 pg hGH/10^6 cells; in [2] (50 (unit uncertain), 1 h treatment (Table 3)), 7 pg hGH/10^6 cells. Besides, the “hGH secreted, PHGH 1 + 24 h” value in [2] (25 (unit uncertain), 1 h treatment + 24 h normal medium) was 13 pg hGH/10^6 cells; in series [2] (50 (unit uncertain), 1 h treatment + 24 h normal medium (Table 3)), 4 pg hGH/10^6 cells. Further, the “hGH secreted, PHGH 5 h” value in [2] (25 (unit uncertain), 5 h treatment) is 16 pg hGH/10^6 cells; in [2] (50 (unit uncertain), 5 h treatment (Table 3)), 17 pg hGH/10^6 cells. Also, the “hGH secreted, PHGH 5 + 24” value in series [2] (25 (unit uncertain), 5 h treatment + 24 h normal medium) is recorded as 69 pg hGH/10^6 cells; in series [2] (50 (unit uncertain), 5 h treatment + 24 h normal medium (Table 3)), 522 pg hGH/10^6 cells. Further, the “hGH secreted, MMHGH/5 1 h” value with MMH/GH5 cells (Clone 5) (25, 1 h treatment) is 10 pg hGH/10^6 cells; with MMH/GH5 cells (Clone 5) (50, 1 h treatment (Table 3)), 94 pg hGH/10^6 cells. In addition, the “hGH secreted, MMHGH/5 1 + 24 h” value is recorded as 0 pg hGH/10^6 cells in the series with MMH/GH5 cells (Clone 5) (25, 1 h treatment + 24 h normal medium) and 116 pg hGH/10^6 cells in the series with MMH/GH5 cells (Clone 5) (50, 1 h treatment + 24 h normal medium (Table 3)). Besides, the “hGH secreted, MMHGH/5 5 h” value was 27 pg hGH/10^6 cells in the series with MMH/GH5 cells (Clone 5) (25, 5 h treatment) and 47 pg hGH/10^6 cells with MMH/GH5 cells (Clone 5) (50, 5 h treatment (Table 3)). For the same molecule, the “hGH secreted, MMHGH/5 5 + 24” value in the series with MMH/GH5 cells (Clone 5) (25, 5 h treatment + 24 h normal medium) is listed as 2 pg hGH/10^6 cells; in the series with MMH/GH5 cells (Clone 5) (50, 5 h treatment + 24 h normal medium (Table 3)) it was 9 pg hGH/10^6 cells.
